For the experiment, the system named is db/db mice. Description: Weekly fasting triglyceride levels in db/db mice. Type of experiment: in vivo, mouse. Conditions: after 10 weeks of treatment, P<0.05. As to the method:
Weekly fasting triglyceride levels of male db/db mice treated with GW1929 (5 mg/kg), N-931 (375 mg/kg) and vehicle were taken for 10 weeks. Animals were provided with T2018 rodent diet ad libitum except when fasting. Animals were fasted overnight before measurements were taken. The values indicated are percent triglyceride levels of vehicle, n=8.

The values below come from patent US8852657B2, “Chromones as therapeutic agents” (Unigen, Inc., priority 2007, dated 2014).

Each structure is given as a SMILES string.

Regarding `CN(CCOc1ccc(C[C@H](Nc2ccccc2C(=O)c2ccccc2)C(=O)O)cc1)c1ccccn1` [GW1929, N-(2-Benzoylphenyl)-O-[2-(methyl-2-pyridinylamino)ethyl]-L-tyrosine], the “fasting triglyceride levels compared to vehicle” value is on record as “significant reduction in triglyceride levels”. For the same compound, for the setting “N931 375 mg/kg, GW1929 5 mg/kg”, the reduction of triglycerides is 43%.
